ChEMBL document CHEMBL5726468, “Heterocyclic compounds and methods of use thereof” (2019)
Values joined by “and” are separate entries in the source; they are usually repeats but may differ in a detail not shown here. Equal values may be shown once.

Assay: Huh 7.5.1 ATPlite assay : This example demonstrates the EC50 and CC50 values against HCV according to the HCVcc-RLuc reporter assay described in Example 5 and the cytotoxicity using the Huh 7.5.1 ATPlite assay for compounds in accordance with an embodiment of the invention.

**Q.** With Cc1ccccc1-c1nc(CN2CCC(C(=O)NCCCN3C[C@H](C)C[C@H](C)C3)CC2)c(C)s1 as the compound, how does the EC50 (Huh-7.5.1) read?
**A.** 38 nM

**Q.** For Cc1ccccc1C1=NC(CN2CCC(C(=O)NCCCN3CCC(C)CC3)CC2)C(C)O1 (stereo not drawn), which EC50 (Huh-7.5.1) is on record?
**A.** 400 nM

**Q.** With CC1OC(c2c(Cl)cccc2Br)=NC1CN1CCC(C(=O)NCCCN2C[C@H](C)C[C@H](C)C2)CC1 (stereo partly drawn) as the compound, how does the EC50 read?
**A.** 178 nM and 386 nM

**Q.** Which EC50 (Huh-7.5.1) does the source give for Cc1cccc(Cl)c1C1=NC(CN2CCC(C(=O)NCCCN3C[C@H](C)C[C@H](C)C3)CC2)C(C)O1 (stereo partly drawn) here?
**A.** 14 nM

**Q.** For Cc1cc(C)cc(C2=NC(CN3CCC(C(=O)NCCCN4C[C@H](C)C[C@H](C)C4)CC3)C(C)O2)c1 (stereo partly drawn), which EC50 (Huh-7.5.1) is on record?
**A.** 36 nM

**Q.** Which EC50 (Huh-7.5.1) does the source give for Cc1ccccc1C1=NC(CN2CCC(C(=O)N3CCN(CCN(C)C)CC3)CC2)C(C)O1 (stereo not drawn) here?
**A.** 6100 nM

**Q.** Which EC50 (Huh-7.5.1) does the source give for CC1OC(c2c(Cl)cccc2Cl)=NC1CN1CCC(C(=O)NCCCN2C[C@H](C)C[C@H](C)C2)CC1 (stereo partly drawn) here?
**A.** 221 nM

**Q.** Which EC50 (Huh-7.5.1) does the source give for CC1OC(c2c(F)cccc2Cl)=NC1CN1CCC(C(=O)NCCCN2C[C@H](C)C[C@H](C)C2)CC1 (stereo partly drawn) here?
**A.** 334 nM

**Q.** With COc1cccc(Br)c1C1=NC(CN2CCC(C(=O)NCCCN3C[C@H](C)C[C@H](C)C3)CC2)C(C)O1 (stereo partly drawn) as the compound, how does the EC50 (Huh-7.5.1) read?
**A.** 213 nM

**Q.** Which EC50 (Huh-7.5.1) does the source give for CCc1ccccc1C1=NC(CN2CCC(C(=O)NCCCN3C[C@H](C)C[C@H](C)C3)CC2)C(C)O1 (stereo partly drawn) here?
**A.** 140 nM

**Q.** Which EC50 (Huh-7.5.1) does the source give for C[C@@H]1C[C@H](C)CN(CCCNC(=O)C2CCN(Cc3oc(-c4cc(C(F)(F)F)cc(C(F)(F)F)c4)nc3C(F)(F)F)CC2)C1 here?
**A.** 153 nM

**Q.** Which EC50 (Huh-7.5.1) does the source give for Cc1cc(-c2nc(CN3CCC(C(=O)NCCCN4C[C@H](C)C[C@H](C)C4)CC3)co2)ccc1F here?
**A.** 38 nM

**Q.** With CC1OC(c2c(F)cccc2F)=NC1CN1CCC(C(=O)NCCCN2C[C@H](C)C[C@H](C)C2)CC1 (stereo partly drawn) as the compound, how does the EC50 (Huh-7.5.1) read?
**A.** 624 nM

**Q.** With CC1OC(c2ccc(Cl)c(Cl)c2)=NC1CN1CCC(C(=O)NCCCN2C[C@H](C)C[C@H](C)C2)CC1 (stereo partly drawn) as the compound, how does the EC50 (Huh-7.5.1) read?
**A.** 13 nM

**Q.** Which EC50 (Huh-7.5.1) does the source give for CC1OC(c2ccc(F)cc2)=NC1CN1CCC(C(=O)NCCCN2C[C@H](C)C[C@H](C)C2)CC1 (stereo partly drawn) here?
**A.** 53 nM

**Q.** For CCN(CC)CCCCNC(=O)C1CCN(CC2N=C(c3cc(OC)cc(OC)c3)OC2C)CC1 (stereo not drawn), which EC50 (Huh-7.5.1) is on record?
**A.** 6550 nM

**Q.** Which EC50 (Huh-7.5.1) does the source give for Cc1ccccc1-c1nc(CC2CCC[C@@H](C(=O)CCCCN3C[C@H](C)C[C@H](C)C3)C2)c(C)o1 (stereo partly drawn) here?
**A.** 410 nM

**Q.** For Cc1ccccc1-c1nc(CN2CCC[C@@H](C(=O)NCCCN3C[C@H](C)C[C@H](C)C3)C2)c(C)o1, which EC50 (Huh-7.5.1) is on record?
**A.** 304 nM

**Q.** With Cc1ccc(C2=NC(CN3CCC(C(=O)NCCCN4C[C@H](C)C[C@H](C)C4)CC3)C(C)O2)cc1 (stereo partly drawn) as the compound, how does the EC50 (Huh-7.5.1) read?
**A.** 100 nM

**Q.** Which EC50 (Huh-7.5.1) does the source give for COc1cccc(F)c1C1=NC(CN2CCC(C(=O)NCCCN3C[C@H](C)C[C@H](C)C3)CC2)C(C)O1 (stereo partly drawn) here?
**A.** 455 nM

**Q.** For Cc1cccc(Cl)c1C1=NC(CN2CCC(C(=O)NCCCN3CCC(C)(C)CC3)CC2)C(C)O1 (stereo not drawn), which EC50 (Huh-7.5.1) is on record?
**A.** 220 nM

**Q.** With CC1CCCN(CCCNC(=O)C2CCN(Cc3oc(-c4cc(C(F)(F)F)cc(C(F)(F)F)c4)nc3C(F)(F)F)CC2)C1 (stereo not drawn) as the compound, how does the EC50 (Huh-7.5.1) read?
**A.** 341 nM

**Q.** For CC1OC(c2ccc(Cl)cc2)=NC1CN1CCC(C(=O)NCCCN2C[C@H](C)C[C@H](C)C2)CC1 (stereo partly drawn), which EC50 (Huh-7.5.1) is on record?
**A.** 110 nM

**Q.** Which EC50 (Huh-7.5.1) does the source give for Cc1ccccc1C1=NC(CN2CCC(C(=O)NCCN3CCCCC3)CC2)C(C)O1 (stereo not drawn) here?
**A.** 1200 nM

**Q.** With Cc1cc(C)c(C2=NC(CN3CCC(C(=O)NCCCN4C[C@H](C)C[C@H](C)C4)CC3)C(C)O2)c(C)c1 (stereo partly drawn) as the compound, how does the EC50 (Huh-7.5.1) read?
**A.** 190 nM

**Q.** Which EC50 (Huh-7.5.1) does the source give for CC1OC(c2ccccc2Cl)=NC1CN1CCC(C(=O)NCCCN2C[C@H](C)C[C@H](C)C2)CC1 (stereo partly drawn) here?
**A.** 86 nM

**Q.** With Cc1ccc(C2=NC(CN3CCC(C(=O)NCCCN4C[C@H](C)C[C@H](C)C4)CC3)C(C)O2)cc1C (stereo partly drawn) as the compound, how does the EC50 (Huh-7.5.1) read?
**A.** 98 nM

**Q.** Which EC50 (Huh-7.5.1) does the source give for COc1cc(OC)cc(C2=NC(CN3CCC(C(=O)NCCCN4CC(C)CC(C)C4)CC3)C(C)O2)c1 (stereo not drawn) here?
**A.** 680 nM
